Assay [1] concerns the target T1, ubiquitinylation of CARD9 by TRIM62 (Homo sapiens, UniProt Q9H257).
T1 construct: Full-length Flag-StrepII-CARD9 for AlphaLISA, DSF and NMR assays was expressed as previously described; StrepII (N); made in house; UBE1 and UBE2D2 purchased from LifeSensors, no catalogue numbers
T1 sequence (Q9H257 1-536): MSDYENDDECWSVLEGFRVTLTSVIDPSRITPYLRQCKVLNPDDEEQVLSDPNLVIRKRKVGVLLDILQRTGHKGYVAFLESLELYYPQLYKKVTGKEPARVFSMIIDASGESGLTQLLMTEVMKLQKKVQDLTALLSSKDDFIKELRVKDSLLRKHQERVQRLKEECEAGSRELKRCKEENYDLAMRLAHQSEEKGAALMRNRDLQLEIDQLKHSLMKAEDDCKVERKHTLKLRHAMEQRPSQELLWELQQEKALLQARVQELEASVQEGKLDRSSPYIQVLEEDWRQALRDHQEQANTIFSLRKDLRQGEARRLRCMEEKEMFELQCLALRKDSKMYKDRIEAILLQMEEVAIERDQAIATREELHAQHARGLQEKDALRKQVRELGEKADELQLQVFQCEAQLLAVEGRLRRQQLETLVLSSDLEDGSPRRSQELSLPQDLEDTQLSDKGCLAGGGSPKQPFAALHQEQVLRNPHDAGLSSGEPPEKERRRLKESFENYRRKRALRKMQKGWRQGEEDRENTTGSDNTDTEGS
The assay can be described thus: AlphaLISA ubiquitinylation assay. As to conditions: reconstituted E1-E2-E3 TRIM62 complex. It is filed as biochemical. How it is done:
FlagStrep-CARD9 and TRIM62 were expressed and purified as previously described (Cao et al.). Assay-ready plates containing 80 nl of 10 mM compound in DMSO were used. Ubiquitinylation reactions contained 12.5 nM Flag-Strep-CARD9, 1.25 nM TRIM62, 500 nM ubiquitin, 10 nM UBE1 (LifeSensors), 200 nM UBE2D2 (LifeSensors), 50 mM Tris pH=7.5, 5 mM MgCl2, 2.5 mM ATP, 1 mM DTT, 0.005% Tween-20 in a final volume of 10 μl. To assemble reactions, all reaction components except ubiquitin and Trim62 were combined and dispensed at a 2× concentration in a volume of 5 μl using a Multi-Drop Combi Reagent Dispenser. Reactions were initiated by added ubiquitin and TRIM62 at a 2× concentration in a volume of 5 μL in the same manner. The reactions were incubated at ambient temperature for 90 min then stopped by the addition of 10 μl of 2× quench/detect solution using a 16-ViaFlow dispenser. The 2× quench/detect solution contained 100 mM HEPES pH=7.5, 300 mM NaCl, 0.01% Tween 20, 30 mM ETDA, 40 μg/ml Streptavidin-Donor beads, 10 μg/ml α-Flag-Acceptor beads (both from PerkinElmer) and 100 nM biotin-TUBE1 (LifeSensors). Plates were incubated at RT for an additional 1 h then read on a PerkinElmer Envision.
A general note: Bead proximity is the source of the signal in Alpha formats.

Assay [2] deals with T2, CARD9-TRIM62 protein-protein interaction (Homo sapiens, UniProt Q9H257).
T2 construct: expressed in transfected cells; host or cells: HEK293F (Life Technologies, R790-07), separate transient transfections, cleared lysates
T2 sequence (Q9H257 1-536): T1 sequence (Q9H257 1-536)
The assay can be described thus: Luminex bead-based ELISA CARD9-TRIM62 protein-protein interaction assay. It is filed as binding. How it is done: Flag-StrepII-CARD9 and TRIM62 were purified as described (Cao et al). TRIM62ΔRING and B30.2/SPRY were expressed in Sf9 cells in pFastBac as His8 fusion. For Luminex assay, HEK293F cells were transfected with 3XMyc-TRIM62 in pCMV and separately with Flag-CARD9 in pcDNA4/TO. Anti-Myc tag antibody (9E10) was conjugated to the beads and used for TRIM62 affinity capture from cleared lysates. Following the incubation with compounds, Flag-CARD9 lysate was added; after a series of washes and secondary PE-conjugated antibody incubation, readout was performed on MagPlex instruments.
HEK293F (Life Technologies, R790-07) cells were grown in Freestyle media (Cat. #12338) according to manufacturer's instructions. Cells were transiently transfected with 3XMyc-TRIM62 in pCMV and separately with Flag-CARD9 in pcDNA4/TO. Anti-Myc tag antibody (9E10, Sigma) was conjugated to the Luminex beads (10 spectral range beads in 10 separate reactions) using Pierce reagents/Luminex coupling kit. Flag-CARD9 and Myc-TRIM62 transfected cells were separately lysed in the lysis buffer (50 mM Tris pH 7.4, 150 mM NaCl, 0.5% NP40, protease inhibitors (Complete, Roche, 11873580001), phosphatase inhibitors (PhosStop, Roche, 4906845001)) and cleared by centrifugation at 10,000 g. Cleared TRIM62 lysates were added to the beads for Myc-mediated capture, incubated at room temperature for 1 hr, then washed lx and reconstituted in 1% BSA in PBS.
Screening compounds were pre-dispensed into assay-ready plates (twintecc, Eppendorf; 50 nl of 10 mM compound stock in DMSO per well). Cleared CARD9 lysate (20 μl per well) was added to the assay-ready plate and pre-incubated with the screening compounds for 30 min before addition of TRIM62-bound beads (300 beads per well, in 5 μl of 1% BSA in PBS). Plates were mixed on Bioshake IQ at 2400 rpm for 2 min and incubated for 40 min at room temperature. Plates were then washed on Biomek NX^P instrument with magnetic plate holders 1× with 1% BSA in PBS. Each 10 plates with non-identical spectral regions of beads were combined into one deep-well plate, and incubated with Flag-PE antibody conjugate (Abcam, ab72469) at the final dilution 1:400 for 1 hr. After 1× wash with 1% BSA in PBS, the readout was performed on Luminex MagPlex instruments with standard operating protocol. Bead quantity per well was employed as quality control measure, wells with bead count less than 20 were rejected from the analysis.
(An ELISA detects its analyte on a solid surface through an enzyme-linked reagent.)

Assay [3] in a line: Truhit alphaLISA assay for non-specific alphaLISA inhibitors. As to conditions: percent AlphaLISA signal, 100% = DMSO control. The source says:
Data are expressed as mean of percent AlphaLISA signal (100%=mean AlphaLISA signal with DMSO control)+/−s.d. […] The alphaLISA findings were further corroborated by TRIM62-mediated ubiquitinylation assay coupled with Western blot detection (FIG. 2E).

In assay [4] the target is T1, ubiquitinylation of CARD9 by TRIM62. The assay can be described thus: TRIM62-mediated ubiquitinylation assay with Western blot detection. It is filed as biochemical. How it is done:
For western blot detection, ubiquitinylation reactions contained 250 nM Flag-Strep-CARD9, 5 nM TRIM62, 5 μM of HA-tagged ubiquitin (Boston Biochem), 25 nM UBE1 (LifeSensors), 300 nM UBE2D2 (LifeSensors), 50 mM Tris pH=7.5, 5 mM MgCl2, 2.5 mM ATP, 1 mM DTT in a final volume of 20 μl. Reactions were quenched by the addition of the LDS sample buffer with 50 mM DTT. HA antibody F-7 (Santa Cruz) was used for the detection of polyubiquitin chains, and Flag M2 antibody from Sigma was used to detect Flag-StrepII-CARD9 as a loading control.
For orientation: In western blotting, separated proteins are transferred to a membrane and probed.

For assay [5], the system named is NF-κB activation in THP-1 cells. The assay can be described thus: NF-κB luciferase reporter assay in THP-1 cells reconstituted with Dectin-1. As to conditions: for WGP Dectin-1-mediated signaling to NF-κB, luciferase activity: WGP 50 μg/mL, 200 μM compound, 4-h time point. It is filed as cell-based. How it is done:
(§1) THP-1 and HEK293T cells were from ATCC and cultured according to ATCC instructions. Cell cultures were regularly checked for mycoplasma contamination using a mycoplasma PCR test. BMDCs were isolated from femur and tibia of C57B/6 mice by harvesting bone marrows followed by hypotonic red blood cell lysis. Obtained bone marrow cells were cultured in DMEM (10% FBS, 1% penicillin/streptomycin, 1% glutamin) with 25 ng/ml GM-CSF.
CARD9 KO THP-1 cells were generated by a CRIPSR-based approach as previously described (Cao et al.). For the NF-κB luciferase assay, CARD9 KO or WT THP-1 cells lines were transduced with Dectin-1 (NM 022570) and a lentivirus-based NF-κB luciferase reporter, containing NF-κB responsive element upstream of minimal promoter and Luc2P54. CARD9 KO cells overexpressing Dectin-1 and the NF-κB luciferase reporter were rescued with indicated CARD9 constructs. For compound treatment, Compound 9 was pre-incubated with Dectin-1, NF-κB reporter expressing THP-1 cells for 2 hours, followed by stimulation with scleroglucan (50 μg/ml), whole glucan particles (WGP dispersible, Invivogen, 50 μg/ml), or LPS (100 ng/ml). Reporter luciferase activity was measured using Steadylite Plus reagent (PerkinElmer).

Assay [6] relates to phosphorylation of IKK in primary bone marrow-derived dendritic cells. The assay is described as follows: Phospho-IKK FACS in bone marrow-derived dendritic cells. As to conditions: 200 μM compound; stimuli scleroglucan (Dectin-1) or LPS (TLR4 control). The assay is classed as cell-based, C57B/6 mice. How it is done: as §1
For phospho-IKK FACS analysis, the BMDCs were plated on day 7 in U bottom 96-well plates at 150,000 cells/well in DMEM, 10% FBS, 1% penicillin/streptomycin, glutamine and GM-CSF the day before the assay. Growth media was replaced with reduced serum media (2% FBS), at this time compound 9 was added to the appropriate wells (at 200 μM) and cells were incubated for 2 hours. Cells were stimulated with 50 μg/ml scleroglucan (Invivogen) or 100 ng/ml LPS (Sigma) for the indicated times at 37° C. At the end of the incubation, media was aspirated and cells were fixed in 4% PFA for 10 min at 37° C.; then resuspended in blocking buffer (3% BSA in permeabilization buffer, eBioscience). […] FACS analysis was run on Cytoflex instrument (Beckman Coulter) and analyzed using FlowJo software by sequentially gating on live/single cells/MHCII high cell population.

`NC(=O)C1(N2CCCCC2)CCN(c2ncc(NC(=O)c3cccc(Cl)c3)cc2C(=O)O)CC1` [compound 7]: the “inhibition of polyubiquitinylation of CARD9 by TRIM62 (AlphaLISA)” value (shortened to “inhibition … (AlphaLISA)”) in assay [1] is “inhibit the functional ubiquitinylation of CARD9 by TRIM62”. Besides, in assay [2], the “inhibition of CARD9-TRIM62 protein-protein interaction (Luminex)” value (“inhibition … (Luminex)” below) was “dose-dependent inhibitors”. In addition, the “non-specific alphaLISA inhibition (Truhit)” value in assay [3] is “Nonspecific inhibition was not observed”. The “inhibition of in vitro CARD9 ubiquitinylation (Western blot)” value (“inhibition … (Western blot)” below) in assay [4] is “inhibition of in vitro CARD9 ubiquitinylation reaction”.
Regarding `NC(=O)C1(N2CCCCC2)CCN(c2ncc(NC(=O)c3ccc(Cl)cc3)cc2C(=O)O)CC1` [compound 27], the “inhibition … (AlphaLISA)” value in assay [1] is “inhibit the functional ubiquitinylation of CARD9 by TRIM62”. Moreover, in assay [2], the “inhibition … (Luminex)” value is recorded as “dose-dependent inhibitors”. The “non-specific alphaLISA inhibition (Truhit)” value in assay [3] is “Nonspecific inhibition was not observed”. In addition, the “inhibition … (Western blot)” value in assay [4] is “inhibition of in vitro CARD9 ubiquitinylation reaction”.
`Cc1ccc(C(=O)Nc2cnc(N3CCC(C(N)=O)(N4CCCCC4)CC3)c(C(=O)O)c2)cc1` [compound 9]: the “inhibition … (AlphaLISA)” value in assay [1] is on record as “inhibit the functional ubiquitinylation of CARD9 by TRIM62”. Also, in assay [2], the “inhibition … (Luminex)” value is listed as “dose-dependent inhibitors”. The “WGP Dectin-1-mediated signaling to NF-κB, luciferase activity” value in assay [5] is reported as “inhibited”. For the same compound, the “NF-κB activation, luciferase reporter” value in assay [5] (scleroglucan or LPS stimuli, 2 hr and 4 hr) was “attenuates CARD9 signaling in stimulus-dependent manner”. In addition, in assay [6], the “phosphorylation of IKK (CARD9 signaling)” value was “attenuates CARD9 signaling in stimulus-dependent manner”. In assay [3], the “non-specific alphaLISA inhibition (Truhit)” value is listed as “Nonspecific inhibition was not observed”. Moreover, in assay [4], the “inhibition … (Western blot)” value was “inhibition of in vitro CARD9 ubiquitinylation reaction”.
For `NC(=O)C1(N2CCCCC2)CCN(c2ncc(NC(=O)c3ccccc3)cc2C(=O)O)CC1` [compound 6], the “inhibition … (AlphaLISA)” value in assay [1] was “inhibit the functional ubiquitinylation of CARD9 by TRIM62”. Besides, the “inhibition … (Luminex)” value in assay [2] was “dose-dependent inhibitors”. The “WGP Dectin-1-mediated signaling to NF-κB, luciferase activity” value in assay [5] is recorded as “inhibited”. Also, in assay [3], the “non-specific alphaLISA inhibition (Truhit)” value is reported as “Nonspecific inhibition was not observed”. Further, in assay [4], the “inhibition … (Western blot)” value is listed as “inhibition of in vitro CARD9 ubiquitinylation reaction”.
Consider `NC(=O)C1(N2CCCCC2)CCN(c2ccc(NC(=O)c3ccccc3F)cc2C(=O)O)CC1` [compound 11], for which the “inhibition … (AlphaLISA)” value in assay [1] was “potent inhibitor”. For the same compound, the “inhibition … (Luminex)” value in assay [2] is “potent inhibitor”.
In the case of scleroglucan [reference compound], the “activation of Dectin-1-mediated signaling, NF-κB-driven luciferase reporter” value in assay [5] (50 μg/mL WGP or scleroglucan) is “more potent ligand than WGP”.

Source of the values: patent US11382908B2, “Compositions and methods for treating inflammatory bowel disease” (The Broad Institute, Inc., priority 2017, dated 2022).
